These results are taken from patent US5814612A, “Retinol derivatives and uses thereof” (priority 1992, dated 1998).

The structures appear in SMILES notation. Entries after “also recorded” stand apart in the source; their conditions may differ.

The test system of series [1] is B lymphocytes. In words: Activity in B lymphocytes. It is filed as cell-based.
The nature of the next series: Chemical stability of P3. Format: physicochemical.
The subject of series [2] is B lymphocytes. The note with it: cited from earlier work.
The nature of series [3]: Reversion of 14HRR to retinal. Format: in vitro ADME.
The next series relates to 5/2 cells. Format: in vitro ADME, human. The procedure:
5/2 cells (10^6 cells in 10 ml HB 101 medium) were incubated with all-trans-[^3 H] retinol (10 uCe/ml). After 24 hours, retinoids were extracted from the washed cell pellet and unlabeled marker retinoids were added. The crude extract was loaded on an analytical reversed-phase C-18 column. Retinoids were eluted with the shown linear gradient of water/methanol/chloroform. The flow rate was 0.5 ml/min. DPM were determined with an on line scintillation counter. Reference retinoids were the all-trans forms of 0: 3,4-didehydroretinoic acid, 1: all-trans-retinoic acid, 2: 3,4-didehydroretinol, 3: retinol, 4: retinyl linoleate, 5: retinyl oleate, 6: retinyl palmitate. Shaded area corresponds to P3. Cross-hatched area corresponds to P1.
Lymphoblastoid 5/2 cells grown in the presence of 10^-6 M retinol were spiked with ^3 H-labeled retinol. After 16 hours the cell pellet was delipidated according to the method of McLean et al. and separated on a reversed phase C-18 HPLC column (FIG. 7). […] Three peaks, P1, P2 and P3, could not be immediately identified. One peak eluting at 36-39 minutes (corresponding 83% methanol 7% water) provisionally called P3, but now known as 14HRR, was unusual because unlike P1 eluting at 31-34 minutes, its relative amount increased when the retinol concentration was lowered or when retinol was given to the cells bound to RBP. […] Since HeLa cells contain 14HRR, these cells were also used. 50 ml of packed HeLa cells (10^10 cells) yielded 25 OD348nmunits of pure P3 after the following sequence of steps: 1. Growth in the presence of 10^-5 M retinol; 2. Extraction of cell pellet according to McClean et al. (13); 3. Preparative C-18 HPLC column eluted with a water/methanol gradient; 4. semipreparative C18 HPLC column eluted with a water/acetonitrile gradient; 5. analytical C4 column eluted with a water/methanol gradient.

For another series, the system named is 5/2. In words: Retinol metabolism, 5/2. It is filed as in vitro ADME, human. On the procedure: (§1) Legend: 2.5×10^6 cells were grown overnight in 5 ml RPMI/10% FBS. The FBS was preincubated at room temperature with 14.4 uCi [^3 H] retinol (NEN) for 4h. The cell pellet was washed twice with PBS. The retinoid were extracted according to MClean et al. 90 and separated on an analytical c18 reverse phase column according to FIG. 7. The DPM were determined using an on-line scintillation counter.

A further series deals with SKL3. In words: Retinol metabolism, SKL3. It is filed as in vitro ADME, human. On the procedure: as §1
In the next series the test system is thymocytes. In words: Viable and blast cell counts of thymocytes (trypan blue). It is filed as cell-based, BALB/c mouse. On the procedure: FIG. 14C: BALB/c thymocytes (3×10^6 /ml) were activated with anti-CD3e mAb as FIG. 1A. The total number of viable cells was determined by counting trypan blue-excluding cells, and those of blast cells by counting viable large cells in six replicate wells. Because of the relatively low cell density required in the culture (see FIG. 14A), the numbers reported for blast cells are best estimates.
Thymuses of 3 to 6-week-old BALB/c mice were teased in serum-free RPMI medium supplemented with 1% BSA, 10^-6 M linoleic acid and antibiotics. Depletion of accessory cells was achieved by two cycles of complement-dependent lysis with a mixture of anti-IA^d (5 μg/ml) and anti-IE^d (1:500 diluted ascites fluid). Briefly, cells were incubated on ice for 30 minutes with Ia antibodies, spun down, resuspended in 1:40 diluted rabbit complement, and incubated at 37° C. for 45 minutes. Incubations and two subsequent washes were carried out with RPMI medium containing 1% BSA. Cell viability was evaluated by trypan blue dye exclusion. To determine the extent of depletion of accessory cells, samples were stained with FITC-conjugated anti-Fc receptor antibody and analyzed by flow cytometry on a FACScan instrument (Becton Dickinson). No FcR-bearing cells were detected by this procedure.

The subject of the next series is ERLD. The series can be described thus: Retinol metabolism, ERLD. Format: in vitro ADME. On the procedure:
as §1

The test system of the next series is N-tera2. The series can be described thus: Retinol metabolism, N-tera2. Format: in vitro ADME, human. On the procedure:
as §1

The test system of a further series is 26 mammalian cells. In words: 3H retinol conversion to P3/14HRR in 26 mammalian cells. It is filed as in vitro ADME. The note with it: retinol bound to fetal calf serum. On the procedure: The use of ^3 H retinol bound to fetal calf serum was used as an assay to test for P3 in other cell lines.
The use of ^3 H retinol bound to fetal calf serum was used as an assay to test for 14HRR in other cell lines.
as §1

The subject of the next series is RPMI. The series can be described thus: Retinol metabolism, RPMI (Leukemia ALL). It is filed as in vitro ADME. On the procedure: as §1

Regarding `CC(C=CC=C(C)C(O)CO)=CC=C1C(C)=CCCC1(C)C` (centres unmarked) [14HRR, 14-hydroxy-4,14-retro-retinol], the “activity relative to all-trans retinol on a concentration basis” value in the series with B lymphocytes [1] (B cells) is 10-30 fold. The “potency relative to retinol in preventing necrotic cell death” value with B lymphocytes [1] (concentration basis) is 20-40 times. Moreover, the “chemical stability” value in “Chemical stability of P3” is “unstable in chloroform and does not survive an acid extraction step”. Also, in the series with B lymphocytes [2], the “difference in active concentration, 14HRR vs retinal” value is listed as 40 fold and the “support of B cell proliferation / response” value is “capable of supporting the proliferation of B cells in the absence of an external supply of retinal”. For the same compound, the active concentration in the series on B lymphocytes [2] (previous analyses with B lymphocytes (ref. 33)) is 50 nM. The “reversion to retinal” value in series [3] is “does not revert to retinal”.
For the compound `CC1=C(/C=C/C(C)=C/C=C/C(C)=C/C(=O)O)C(C)(C)CCC1` [all-trans retinoic acid], the “detection as metabolite of retinol” value in the series with 5/2 cells is “not detectable”.
For the compound `CC1=C(/C=C/C(C)=C/C=C/C(C)=C/CO)C(C)(C)CCC1` [retinol, all-trans retinol], the “Ester (% of taken up retinol)” value amounted to 24% in the series on 5/2; 24% with SKL3; 20% in the series with ERLD; 97% in the series on N-tera2; 38% with RPMI. For the same compound, the “P3 (% of taken up retinol)” value in the series on 5/2 worked out at 4%; with SKL3, 2%; with ERLD, 9%; in the series with N-tera2 it was 0.4%; with RPMI, 2%. Further, the Total cts. with 5/2 was 5.7 × 10^5 cts; in the series on SKL3, 1.6 × 10^5 cts; in the series on ERLD, 2.8 × 10^5 cts; in the series with N-tera2, 13.5 × 10^5 cts; in the series with RPMI it was 1.2 × 10^5 cts. The “T cell activation / blast transformation by agent alone” value in the series on thymocytes (alone) was “no discernible T cell activation”. Moreover, in the series on thymocytes (retinol by itself), the “viability of thymocyte cultures” value is given as “maintain a higher state of viability than anti-CD3e "only" stimulation”. Moreover, the “formation of P3/14HRR from 3H retinol” value with 26 mammalian cells is given as “radioactivity peak at the position where 14HRR normally elutes; also recorded: radioactivity peak at the position where P3 normally elutes”.
